From patent US20100273750A1, “SEROTONIN RECEPTOR ANTAGONISTS FOR TREATING ARTHRITIS” (IMPERIAL INNOVATIONS LIMITED, priority 2007, published 2010)
Entries after “also recorded” stand apart in the source; their conditions may differ. Where a name gives a salt, the structure may show the parent alone.

Key:
[1] = test system: RA synovial membrane cultures; test: Spontaneous cytokine release from RA synovial membrane cultures (ELISA); format: cell-based, human
[2] = test system: TLR3 ligand poly IC induced IP-10; test: Poly IC induced IP-10 production in human macrophages (ELISA); format: cell-based
Method: (§1) Macrophages or RA synovial membrane cell cultures were stimulated with 10 ng/ml chloroform-extracted LPS, 10 ng/ml Pam3, 10 ng/ml Flagellin, 10 ng/ml Malp-2, 20 μg/ml poly IC, 2 μM CpG (human/mouse) or 1 μg/ml R-848 in complete media for 6 h. Supernatants from RA cultures were harvested after 24 hours. All reagents other than LPS were free from LPS contamination as assessed using the limulus amebocyte lysate (LAL) assay from Cambrex (USA).
(§2) Sandwich ELISAs were employed to measure TNF, (Pharmingen, UK). IP-10 (R&D, USA) and IL-1β (Bioscource. USA). Absorbance was read on a spectrophotometric ELISA plate reader (Labsystems Multiscan Biochromic) and analyzed using Ascent software V2.6 (Thermo Labsystems, Cambridge, United Kingdom). All results are expressed as the mean cytokine concentration±SD obtained from triplicate cultures per condition.
(§3) RA synovial membrane cells were isolated from patients undergoing joint replacement surgery as previously described (Foxwell et al., Proc. Natl. Acad. Sci. USA 95, 8211-8215, 1998). All patients gave written informed consent and the study was approved by the local ethics committee. Immediately after isolation, cells were used for mRNA analysis, stained by FACS or cultured at 1×10^5 cells/well in 96-well tissue culture plates (Falcon, UK) in RPMI 1640 containing 10% (v/v) FBS and 100 U/ml penicillin/streptomycin. Primary human synovial fibroblasts were cultured as described previously (Butler et al. Eur. Cytokine Netw. 5:441-8, 1994). Peripheral blood monocytes were isolated and cultured as previously described (Foxwell et al. Proc. Natl. Acad. Sci. USA 95, 8211-8215, 1998). Macrophages were derived from monocytes after differentiation for 4 days with 100 ng/ml M-CSF (PeproTech, UK). The mouse macrophage cell line RAW 264.7 was maintained in Dulbecco's modified Eagle's medium supplemented with 10% fetal bovine serum.
Primary human macrophages were incubated with 5 μg/ml of GBR12909, 5 μg/ml of clotrimazole, 5 μg/ml of Propidium iodide (PI), 30 μg/ml mianserine hydrochloride and 30 μg/ml promazine hydrochloride for 30 minutes and then stimulated for 6 hours with the TLR4 ligand LPS (FIG. 7A), with R848 a TLR7/8 ligand (FIG. 7, Graph B), or with poly IC a TLR3 ligand (FIG. 7C). Supernatants were collected and measured for TNF or IP-10.

[3] = test system: TLR7/8 ligand R-848 induced TNF; test: R-848 induced TNF production in primary human macrophages (ELISA); conditions: 1 μg/ml R-848 for 6 hours
[4] = test system: TLR4 ligand LPS induced TNF; test: LPS induced TNF production in primary human macrophages (ELISA); format: cell-based; conditions: 30 minutes preincubation
Method: as §1, §2, §3
Primary human macrophages, murine RAW 264.7 cells and synovial fibroblasts were incubated with 30 μg/ml mianserine hydrochloride for 30 minutes and then stimulated for 6 hours with TLR ligands (R-848, Pam3, LPS, flagellin, malp-2, poly IC or CpG).

[5] = test system: rheumatoid synovial membrane cultures; test: TNF production in rheumatoid synovial membrane cultures stimulated with TLR ligands (ELISA); format: cell-based, human
Method: as §1, §2, §3
To check if these TLRs were functional in synovial membrane cultures, cells were stimulated with the appropriate TLR ligands at the time of seeding the cells (FIG. 5, Graph C). […]

[6] = test system: RA synovial membrane cultures; test: Spontaneous cytokine release from RA synovial membrane cultures (ELISA); format: cell-based, human; conditions: 10 μg/ml, 20 μg/ml and 30 μg/ml
Method: as §1, with “hours.” for “hours. All reagents other than LPS were free from LPS contamination as assessed using the limulus amebocyte lysate (LAL) assay from Cambrex (USA).”
as §2, §3
Rheumatoid arthritis synovial membrane cells were cultured for 24 hours in the presence of media alone or media containing 30 μg/ml mianserine hydrochloride. Supernatants were harvested and levels of cytokines (A) TNF (n=16) were measured by ELISA. […] A students paired t-test was used to analyse the data.

[7] = 5 μg/ml, 30 minutes preincubation
[8] = 30 μg/ml, 10 ng/ml LPS for 6 hours
[9] = dose dependant, best inhibition at 100 μM, 24 hours, n=4

CC[N+](C)(CC)CCC[n+]1c(-c2ccccc2)c2cc(N)ccc2c2ccc(N)cc21.[I-].[I-] [Propidium iodide]
inhibition of spontaneous TNF production ([1]; 5 μg/ml, 24 hours): did not lead to a significant decrease
inhibition of Poly IC induced IP-10 production ([2]; 5 μg/ml, poly IC for 6 hours): able to inhibit
inhibition of R-848 induced TNF production [3, 7]: only the serotonin receptor antagonists (mianserine hydrochloride and promazine hydrochloride) were able to suppress
inhibition of LPS induced TNF production ([4]; 5 μg/ml, LPS for 6 hours): None of the drugs tested were able to inhibit

CCOCc1nc2c(N)nc3ccccc3c2n1CC(C)(C)O [R-848, resiquimod]
TNF production increased on stimulation ([5]; 1 μg/ml, TLR7/8 ligand, P<0.0001, n=11): 515%±76

Clc1ccccc1C(c1ccccc1)(c1ccccc1)n1ccnc1 [clotrimazole, Clotrimazole]
inhibition of spontaneous TNF production ([1]; 5 μg/ml, 24 hours): did not lead to a significant decrease
inhibition of Poly IC induced IP-10 production ([2]; 5 μg/ml, poly IC for 6 hours): able to inhibit
inhibition of R-848 induced TNF production [3, 7]: only the serotonin receptor antagonists (mianserine hydrochloride and promazine hydrochloride) were able to suppress
inhibition of LPS induced TNF production ([4]; 5 μg/ml, LPS for 6 hours): None of the drugs tested were able to inhibit

CC(C)Cn1cnc2c(N)nc3ccccc3c21 [imiquimod]
stimulation of cytokine release over spontaneous levels ([5]; 1 μg/ml, TLR7 ligand): unable to stimulate further release of cytokines

CN1C[C@H](CNC(=O)OCc2ccccc2)C[C@@H]2c3cccc4c3c(cn4C)C[C@H]21 [metergoline]
inhibition of spontaneous TNF production ([1]; 10 μg/ml, 24 hours): able to inhibit
inhibition of R-848 induced TNF production ([3]; 10 μg/ml, 30 minutes preincubation): able to inhibit

CSc1ccc2c(c1)C(N1CCN(C)CC1)Cc1ccccc1S2 (stereo not shown) [methiothepin]
inhibition of spontaneous TNF production ([1]; 5 μg/ml, 24 hours): able to inhibit
inhibition of R-848 induced TNF production [3, 7]: able to inhibit

Cc1nccn1CC1CCc2c(c3ccccc3n2C)C1=O (stereo not shown) [ondansetron]
inhibition of spontaneous TNF production ([1]; 20 μg/ml, 24 hours): able to inhibit; also recorded: significant inhibition
inhibition of R-848 induced TNF production ([3]; 30 μg/ml, 30 minutes preincubation): significantly inhibits
inhibition of R-848 induced TNF production ([3]; 30 μg/ml, 30 minutes preincubation, listed as Ondansetron): able to inhibit
inhibition of R-848 induced TNF production, dose dependence ([3]; 5, 10 or 20 μg/ml, 30 minutes preincubation): dose dependant inhibition
inhibition of LPS induced TNF production [4, 8]: not

CN(C)CCCN1c2ccccc2Sc2ccccc21 [promazine hydrochloride]
inhibition of Poly IC induced IP-10 production ([2]; 30 μg/ml, 20 μg/ml poly IC for 6 hours, hydrochloride): inhibits TLR3 induced signalling; also recorded: able to inhibit
inhibition of TNF, dose dependence [6]: dose dependently inhibited
inhibition of R-848 induced TNF production ([3]; 30 μg/ml, 30 minutes preincubation, hydrochloride): able to suppress
inhibition of R-848 induced TNF production ([3]; 30 μg/ml, 30 minutes preincubation, listed as Promazine hydrochloride, hydrochloride): decreased TNF production
inhibition of LPS induced TNF production [4, 8]: None of the drugs tested were able to inhibit

Cc1nc2sccn2c(=O)c1CCN1CCC(=C(c2ccc(F)cc2)c2ccc(F)cc2)CC1 [ritanserin]
inhibition of spontaneous TNF production ([1]; 5 μg/ml, 24 hours): able to inhibit
inhibition of R-848 induced TNF production [3, 7]: able to inhibit

NCCc1c[nH]c2ccc(O)cc12 [serotonin (5-HT), 5-hydroxytryptamine]
inhibition of R-848 induced TNF production (TLR8 signaling) ([3]; 10 or 100 μM, 30 minute preincubation): not inhibited

Chloroquine diphosphate salt
inhibition of spontaneous IL-1 release [1, 9]: inhibited
inhibition of spontaneous TNF release [1, 9]: inhibited

Poly IC
TNF production increased on stimulation ([5]; 20 μg/ml, TLR3 ligand, P=0.0002, n=12): 334%±60

ketanserine tartrate
inhibition of TNF, dose dependence ([1]; 10 μM, 100 μM): dose dependently inhibited
